Data as given in US12202815B2, “Selective androgen receptor degrader (SARD) ligands and methods of use thereof” (priority 2018, dated 2025).
Several values for one entry are separate records, joined by “and”; a condition that tells them apart may be missing. Equal entries are not always repeated. Entries after “also recorded” stand apart in the source; their conditions may differ. Where two headings read alike, the source gives them in different places.

Tests used:
RLM metabolism half-life = type: in vitro ADME; details: rat liver microsomes
Description: (§1) The assay was done in a final volume of 0.5 ml in duplicates (n=2). […] After pre-incubation, reaction was started by addition of 1 mM NADPH (pre-incubated at 37° C.). Incubations were carried out in triplicate and at various time-points (0, 5, 10, 15, 30 and 60 minutes) 100 μl aliquots were removed and quenched with 100 μl of acetonitrile containing internal standard. Samples were vortex mixed and centrifuged at 4000 rpm for 10 minutes. The supernatants were transferred to 96 well plates and submitted for LC-MS/MS analysis. As control, sample incubations done in absence of NADPH were included. From % PCR (% Parent Compound Remaining), rate of compound disappearance is determined (slope) and in vitro CLint (μl/min/mg protein) was calculated.

in vivo = details: male, Sprague Dawley, rat, 20 mpk
[1] = type: in vitro ADME; details: human liver microsomes
Description: as §1

[2] = for serum drug level (bioavailability): rats dosed at 20 mg/kg
AR = biological target: T1, AR (Rattus norvegicus, UniProt P15207); details: castrated rats, 20 mg/kg for 13 days
T1 sequence (P15207 1-902): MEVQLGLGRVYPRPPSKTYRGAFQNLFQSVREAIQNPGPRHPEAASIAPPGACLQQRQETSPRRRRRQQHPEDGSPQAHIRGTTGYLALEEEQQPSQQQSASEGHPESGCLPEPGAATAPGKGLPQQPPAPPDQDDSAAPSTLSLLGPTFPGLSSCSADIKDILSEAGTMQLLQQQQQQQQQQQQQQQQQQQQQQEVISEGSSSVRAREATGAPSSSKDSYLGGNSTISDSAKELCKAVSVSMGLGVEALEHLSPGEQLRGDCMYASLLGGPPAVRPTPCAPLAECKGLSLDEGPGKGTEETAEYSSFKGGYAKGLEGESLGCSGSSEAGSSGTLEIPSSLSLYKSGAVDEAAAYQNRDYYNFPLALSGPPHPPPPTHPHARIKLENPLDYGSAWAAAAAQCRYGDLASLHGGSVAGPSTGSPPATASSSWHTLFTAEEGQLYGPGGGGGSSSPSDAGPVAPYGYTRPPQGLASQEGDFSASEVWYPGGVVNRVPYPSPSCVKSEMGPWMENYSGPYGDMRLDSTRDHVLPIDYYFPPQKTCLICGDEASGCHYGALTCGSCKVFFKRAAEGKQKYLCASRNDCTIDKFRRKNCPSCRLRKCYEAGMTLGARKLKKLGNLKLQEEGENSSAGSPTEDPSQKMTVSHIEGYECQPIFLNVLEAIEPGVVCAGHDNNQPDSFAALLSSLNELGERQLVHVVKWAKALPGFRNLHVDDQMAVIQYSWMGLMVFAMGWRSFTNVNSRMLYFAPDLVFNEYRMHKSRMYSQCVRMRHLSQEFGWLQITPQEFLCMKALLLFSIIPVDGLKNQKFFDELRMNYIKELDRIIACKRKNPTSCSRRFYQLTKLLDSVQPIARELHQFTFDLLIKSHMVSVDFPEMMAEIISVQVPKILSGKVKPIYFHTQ
Excerpt: One week after castration, the animals were randomized and dosed for 13 days p.o. as indicated below. Dosing solutions were be prepared in 20% DMSO+80% PEG. Body weights were be measured on day 1 and at the time of sacrifice. At sacrifice, prostate and seminal vesicles weights were taken.

[3] = High dose Hershberger experiment, 7 days oral; type: in vivo, Sprague Dawley rat; details: 100 mpk oral 7 days, individual animals
Description: Body weights were recorded on day 0 and day 7 (Table 4B). On day 7, animals were sacrificed and organs were observed.

[4] = Pharmacokinetics in male Sprague Dawley rats (oral 7 days, iv Day 1)
Description: At initial dosing, the animals were 12 weeks of age. The animals were group housed (up to three animals/cage/group) in polycarbonate cages with hardwood chip bedding. […] Water was provided fresh daily, ad libitum. […] As necessary, the 12-hour dark cycle was interrupted to accommodate study procedures. […] Individual doses were calculated based on body weights recorded on Day 1 and Day 7 of dose administration. […] A single intravenous dose was administered via a tail vein and blood sample on Day 1.
Animals were weighed at the time of animal selection and on Day 1 and Day 7 of dose administration.
Centrifugation began within 1 hour of collection. Plasma was placed into 96-well tubes with barcode labels. Plasma was maintained on dry ice prior to storage at approximately −70° C. Drug concentrations were measured by established chromatography/mass spectrometry (LC-MS/MS) methods.

full length AR = assay: LNCaP or AD1 degradation (AR FL), Western blot; type: cell-based
[5] = for metabolism (in words): data not shown
[6] = Table 9, Group 3, oral 30 mg/kg
[7] = male, Sprague Dawley, rat, in vivo, iv, 5 mg/kg
[8] = male, Sprague Dawley, rat, in vivo, po, 5 mg/kg
[9] = male, Sprague Dawley, rat, in vivo, po, 20 mg/kg
[10] = male, Sprague Dawley, rat, in vivo, po, 30 mg/kg
[11] = male, Sprague Dawley, rat, in vivo, po, 60 mg/kg

## C[C@](O)(Cn1cc(F)cn1)C(=O)Nc1cnc(C#N)c(C(F)(F)F)c1 [Compound 1022]
RLM metabolism half-life
  RLM Metebolism (H.L. min): 146 min
In vivo
  concentration at 30 h: 64 nM
[1]
  HLM Metabolism (H.L. min): 108 min
[2]; Table 2, rats 20 mg/kg, 24-30 hours after last dose
  Serum Conc.: 64 nM
[2]; Table 3, 20 mg/kg Hershberger
  Serum Conc.: 64 nM
[2]
  serum drug level (bioavailability): 64 nM

## C[C@](O)(Cn1cc(-c2ccc(F)cc2)nn1)C(=O)Nc1ccc(C#N)c(C(F)(F)F)c1 [Compound 1045]
[2]; 20 mg/kg Hershberger experiment
  pharmacokinetic properties (in words): outstanding pharmacokinetic properties

## C[C@](O)(COc1ccc(C#N)cc1)C(=O)Nc1ccc(C#N)c(C(F)(F)F)c1 [Enobosarm]
AR
  SV and VP re-growth, % of intact vehicle: 50-60%
AR; 20 mg/kg
  agonist activity in ventral prostate and seminal vesicles (in words): partial agonist; also recorded: significant agonism

## C[C@](O)(Cn1cc(Br)c(F)n1)C(=O)Nc1ccc(C#N)c(C(F)(F)F)c1 [Compound 1058]
[3]
  Body wt. on sac. day: 430 g and 470 g
  Day 0 body wt.: 430 g and 472 g
RLM metabolism half-life
  RLM Metebolism (H.L. min): 400 min
[4]; 20 mg/kg
  decreased exposure at the same dose as 1065: 37%
[4]; Table 10, Group 1, oral 5 mg/kg/day
  DN AUC0-24: 5350 (h * ng/mL)/(mg/kg/day)
[4]; Table 10, Group 2, oral 10 mg/kg/day
  DN AUC0-24: 4460 (h * ng/mL)/(mg/kg/day)
[4]; Table 10, Group 3, oral 20 mg/kg/day
  DN AUC0-24: 3200 (h * ng/mL)/(mg/kg/day)
[4]; Table 10, Group 4, oral 30 mg/kg/day
  DN AUC0-24: 2380 (h * ng/mL)/(mg/kg/day)
[4]; Table 10, Group 5, iv 10 mg/kg Day 1
  DN AUC0-24: 4550 (h * ng/mL)/(mg/kg/day)
[1]
  HLM Metabolism (H.L. min): 138 min

## C[C@](O)(Cn1ncc(Cl)c1Br)C(=O)Nc1ccc(C#N)c(C(F)(F)F)c1 [Compound 1067, (S)-3-(5-Bromo-4-chloro-1H-pyrazol-1-yl)-N-(4-cyano-3-(trifluoromethyl)phenyl)-2-hydroxy-2-methylpropanamide]
Full length AR; first value of the pair, 1 μM
  SARD Activity Full Length % inhibition at 1 μM: 61%
Full length AR; second value of the pair, 10 μM
  SARD Activity Full Length % inhibition at 10 μM: 86%

## C[C@](O)(Cn1cc(C#N)cn1)C(=O)Nc1ccc(C#N)c(C(F)(F)F)c1 [Compound 1048]
RLM metabolism half-life
  RLM Metebolism (H.L. min): 86 min
[1]
  HLM Metabolism (H.L. min): 400 min

## C[C@](O)(Cn1ccc2cc(F)ccc21)C(=O)Nc1ccc(C#N)c(C(F)(F)F)c1 [Compound 11]
Full length AR; 3 μM, Table 3
  Degradation (% at 3 μM): 60%
[1]
  HLM Metabolism (H.L. min): 6 min

## C[C@](O)(Cn1cc(C(F)(F)F)cn1)C(=O)Nc1ccc(C#N)c(C(F)(F)F)c1 [Compound 1017]
RLM metabolism half-life
  RLM Metebolism (H.L. min): 400 min
[5]; MLM
  DMPK (MLM) T1/2 (min): Infinity
[1]
  HLM Metabolism (H.L. min): 400 min

## C[C@](O)(Cn1nc(F)c2cc(F)ccc21)C(=O)Nc1cnc(C#N)c(C(F)(F)F)c1 [Compound 99, (S)—N-(6-Cyano-5-(trifluoromethyl)pyridin-3-yl)-3-(3,5-difluoro-1H-indazol-1-yl)-2-hydroxy-2-methylpropanamide]
[5]
  metabolism (in words): rapid metabolism

## C[C@](O)(Cn1ccc2cc(F)ccc21)C(=O)Nc1cnc(C#N)c(C(F)(F)F)c1 [Compound 47, (S)—N-(6-Cyano-5-(trifluoromethyl)pyridin-3-yl)-3-(5-fluoro-1H-indol-1-yl)-2-hydroxy-2-methylpropanamide]
[5]
  metabolism (in words): rapid metabolism

## C[C@](O)(Cn1cc(F)cn1)C(=O)Nc1ccc(C#N)c(C(F)(F)F)c1 [Compound 1002]
RLM metabolism half-life
  RLM Metebolism (H.L. min): 78 min
In vivo
  concentration at 30 h: 33 nM
[4]; [6]
  DN AUC0-24: 2070 (h * ng/mL)/(mg/kg)
  DN Cmax: 111 (ng/mL)/(mg/kg)
[4]; [7]
  AUC0-24: 9580 ng·h/mL
  AUC(0-inf): 9600 ng·h/mL
  AUC(0-t): 9580 ng·h/mL
  C0: 2460 ng/mL
  Cmax: 2290 ng/mL
  DN AUC0-24: 1920
  Tmax: 0.083 h
  Vd: 2.14 L/kg
  clearance: 8.68 mL/min/kg
[4]; male, Sprague Dawley, rat, in vivo, iv, 5 mg/kg, elimination half-life
  half-life: 2.6 h
[4]; male, Sprague Dawley, rat, in vivo, iv, 5 mg/kg, t1/2
  half-life: 2.62 h
[4]; [8]
  AUC0-24: 6860 ng·h/mL
  AUC(0-inf): 7050 ng·h/mL
  AUC(0-t): 6860 ng·h/mL
  Cmax: 526 ng/mL
  DN AUC0-24: 1370
  Tmax: 1 h
[4]; male, Sprague Dawley, rat, in vivo, po, 5 mg/kg, t1/2
  half-life: 4.87 h
[4]; [9]
  AUC0-t: 37000 ng·h/mL
  AUC(0-t): 37000 ng·h/mL
  Cmax: 2620 ng/mL
  DN AUC0-24: 1850
  Tmax: 6 h
[4]; [10]
  Cmax: 3330 ng/mL
  Tmax: 12 h
[4]; [11]
  AUC0-24: 77500 ng·h/mL
  AUC(0-t): 77500 ng·h/mL
  Cmax: 3800 ng/mL
  DN AUC0-24: 1290
  Tmax: 1 h
[1]
  HLM Metabolism (H.L. min): 82 min
[2]
  serum drug level (bioavailability): 33 nM

## C[C@](O)(Cn1cc(Cl)c(Br)n1)C(=O)Nc1ccc(C#N)c(C(F)(F)F)c1 [Compound 1066, (S)-3-(3-Bromo-4-chloro-1H-pyrazol-1-yl)-N-(4-cyano-3-(trifluoromethyl)phenyl)-2-hydroxy-2-methylpropanamide]
RLM metabolism half-life
  RLM Metebolism (H.L. min): 300 min
[1]
  HLM Metabolism (H.L. min): 319 min
